Laboratory results as given in patent US20140335172A1, “OPHTHALMOLOGICAL RINSING AGENT AND METHODS THEREFOF” (priority 2013, published 2014).
Read-outs that look alike come from different tables or passages of the source.

Legend:
[1] = cited from earlier work
[2] = cited from earlier work; for Specific Gravity, at 25° C.: silicone oil grade given by kinematic viscosity, cSt
[3] = cited from earlier work; remark: listed apart in the source
[4] = cited from earlier work; for Kinematic Viscosity (Sticky**): Table 2
RGC-5 = settings: RGC-5, 30 minutes, n=3
Procedure: In the study, CellTiter 96® AQueous non-radioactive cell proliferation assay (MTS) and Cytotoxicity Detection Kit (LDH assay) were used to test for the cell viability and cell death of the RGC-5 and rMC-1 cells after incubation with the rinsing agent (FIG. 17). The major component of the rinsing agent is octamethyltrisiloxane (1.0 cSt Silicone Oil [SO]) with hydrophobic surfactant DC749 (Dow Corning). Rinsing agents with different concentration of DC749 (0%, 5%, 10% in vol.) were included. The incubation time was designed as 1 hr because the proposed use of the rinsing agent would not be longer than 15 mins in-vivo and therefore a 1 hr study would be more than sufficient in deciding the effect of the proposed rinsing agent on the cells in the eye cavity. Hank's Balanced salt solution (HBSS) was used as the experimental control. Two liquids, perfluorodecalin (PFD) and F6H8, were also included in this study. PFD is a widely accepted short-term used intraoperative adjunct for flattening the folded retina during retinal surgery. F6H8 is a key component of Heavy Silicone Oil (HSO), which has been used as a long-term intraocular tamponade.
In a study similar to 6.4 above, the cell viability and the percentage cell death of RGC-5 were investigated in a 30-minute experiment.

[5] = cited from earlier work; remark: listed apart in the source
[6] = Relative volatility ranking of oil solvents; format: physicochemical; settings: relative rank, 1 = most volatile
[7] = Relative cell proliferation ranking of oil solvents; format: cell-based; settings: relative rank, 1 = most proliferative
[8] = Relative cell toxicity ranking of oil solvents; format: cell-based; parameters: key: 1 = most efficient/toxic/proliferative/volatile; settings: relative rank, 1 = most toxic
rMC-1 cells = test: MTS cell viability, rMC-1, 1 hr incubation; format: cell-based; settings: rMC-1 Müller cells, n=3
Excerpt: The innermost cell layer of the retina is called the retinal ganglion cell layer. It consists mainly of retinal ganglion cells, with some Müller cells and also some blood capillaries. This cell layer is located closest to the vitreous anatomically and thus is almost in direct contact with the rinsing agent in this study. Therefore, a retinal ganglion cell line (RGC-5) and a rat Müller cell line were used in this in-vitro cell culture study to evaluate the biocompatibility of the rinsing agent in accordance with at least one embodiment of this application.

[9] = Relative efficacy ranking of oil solvents; settings: relative rank, 1 = most efficient
[10] = at 25 ° C., Table 4 surfactants
[11] = silicone oil grade given by kinematic viscosity, cSt

## C[Si]1(C)O[Si](C)(C)O[Si](C)(C)O[Si](C)(C)O1 [Octamethylcyclotetrasiloxane]
[1]
  Vapor Pressure, Pa at 25° C.: 132 Pa
[2]; [10]
  Density (g/cm^3) at 25° C.: 0.95 g/mL
[3]
  Henry's Law Constant, Pa m^3/mol at 25° C.: 1,214,000 Pa m^3/mol

## C[Si](C)(C)O[Si](C)(C)C [Hexamethyldisiloxane]
[1]; 37° C.
  Vapor Pressure (Torr): 42.2 (37° C.) Torr
[4]
  Dynamic Viscosity (mPa · s) at 25° C.: 0.65 mPa · s
[2]; 20° C., Table 3
  Density: 0.764 g/mL
[2]; at 25° C.
  Specific Gravity, at 25° C.: 0.760
RGC-5; listed as 0.65 mPa·s SO
  cell viability relative to HBSS, MTS assay: significant decrease of cell viability
RGC-5; listed as LMW-SO 0.65 mPa·s
  cell viability relative to HBSS, MTS assay: reducing the metabolism
[5]; Table 3
  Surface Tension (mN/m): 15.9 mN/m
[5]; [11]
  Surface Tension (mN/m): 15.9 mN/m

## CCCCCCCCCCCCC(F)(F)C(F)(F)C(F)(F)C(F)(F)C(F)(F)C(F)(F)F [F6H12]
[4]
  Dynamic Viscosity (mPa · s) at 25° C.: 6.99 mPa · s
[2]; at 25° C., Table 3
  Density (g/cm^3) at 25° C.: 1.25 g/mL
[5]; Table 3
  Surface Tension (mN/m): 21.1 mN/m

## O [H2O]
[1]; 37° C.
  Vapor Pressure (Torr): 46.9 (37° C.) Torr
[4]
  Dynamic Viscosity (mPa · s) at 25° C.: 0.89 mPa · s
[2]; at 25° C., Table 3
  Density (g/cm^3) at 25° C.: 0.970 g/mL
[5]; Table 3
  Surface Tension (mN/m): 72 mN/m

## C[Si]1(C)O[Si](C)(C)O[Si](C)(C)O[Si](C)(C)O[Si](C)(C)O[Si](C)(C)O1 [Dodecamethylcyclobexasiloxane]
[1]
  Vapor Pressure, Pa at 25° C.: 4.6 Pa
[2]; [10]
  Density (g/cm^3) at 25° C.: 0.963 g/mL
[3]
  Henry's Law Constant, Pa m^3/mol at 25° C.: 14,667 Pa m^3/mol

## CCCCCCCCC(F)(F)C(F)(F)C(F)(F)C(F)(F)C(F)(F)C(F)(F)F [F6H8]
[1]; 25° C.
  Vapor Pressure (Torr): <1 (25° C.) Torr
[6]
  Volatility: 3
[4]
  Kinematic Viscosity (Sticky**): 3.44 cSt
  Dynamic Viscosity (mPa · s) at 25° C.: 3.44 mPa · s
[2]; at 25° C., Table 3
  Density (g/cm^3) at 25° C.: 1.331 g/mL
[7]
  Cell proliferation: 2
[8]
  Cell toxicity: 2
rMC-1 cells
  cell viability relative to HBSS, MTS assay: significant decrease in cell viability
[5]; Table 3
  Surface Tension (mN/m): 19.65 mN/m
[9]
  Efficacy: 3

## FC(F)(F)C(F)(F)C(F)(F)C(F)(F)C(F)(F)C(F)(F)C(F)(F)C(F)(F)Br [PFOB]
[1]; 37° C.
  Vapor Pressure (Torr): 10.5 (37° C.) Torr
[6]
  Volatility: 4
[4]
  Kinematic Viscosity (Sticky**): 1.93 cSt
  Dynamic Viscosity (mPa · s) at 25° C.: 1.93 mPa · s
[2]; at 25° C., Table 3
  Density (g/cm^3) at 25° C.: 1.930 g/mL
[7]
  Cell proliferation: 3
[8]
  Cell toxicity: 1
[5]; Table 3
  Surface Tension (mN/m): 18 mN/m
[9]
  Efficacy: 3

## CCCCCC(F)(F)C(F)(F)C(F)(F)C(F)(F)F [F4H5]
[1]; 37° C.
  Vapor Pressure (Torr): 25.1 (37° C.) Torr
[6]
  Volatility: 2
[4]
  Kinematic Viscosity (Sticky**): 1.05 cSt
  Dynamic Viscosity (mPa · s) at 25° C.: 1.05 mPa · s
[2]; at 25° C., Table 3
  Density (g/cm^3) at 25° C.: 1.284 g/mL
[5]; Table 3
  Surface Tension (mN/m): 17.43 mN/m
[9]
  Efficacy: 2

## C[Si]1(C)O[Si](C)(C)O[Si](C)(C)O[Si](C)(C)O[Si](C)(C)O1 [Decamethylcyclopentasiloxane]
[1]
  Vapor Pressure, Pa at 25° C.: 33.2 Pa
[2]; [10]
  Density (g/cm^3) at 25° C.: 0.954 g/mL
[3]
  Henry's Law Constant, Pa m^3/mol at 25° C.: 3,342,000 Pa m^3/mol

## CCCCCCC(F)(F)C(F)(F)C(F)(F)C(F)(F)C(F)(F)C(F)(F)F [F6H6]
[1]; 25° C.
  Vapor Pressure (Torr): <1 (25° C.) Torr
[4]
  Dynamic Viscosity (mPa · s) at 25° C.: 2.38 mPa · s
[2]; at 25° C., Table 3
  Density (g/cm^3) at 25° C.: 1.386 g/mL
[5]; Table 3
  Surface Tension (mN/m): 20.0 mN/m

## C[Si](C)(C)O[Si](C)(C)O[Si](C)(C)C [Octamethyltrisiloxane]
[1]; 25° C.
  Vapor Pressure (Torr): 4 (25° C.) Torr
[4]
  Dynamic Viscosity (mPa · s) at 25° C.: 1.0 mPa · s
[2]; at 25° C., Table 3
  Density (g/cm^3) at 25° C.: 0.818 g/mL
[2]; at 25° C.
  Specific Gravity, at 25° C.: 0.816
[5]; Table 3
  Surface Tension (mN/m): 17.4 mN/m
[5]; [11]
  Surface Tension (mN/m): 17.4 mN/m
